These results are taken from patent US20030166651A1, “Novel 3-substituted 1,2,4-benzotriazines, a method for their production and the use thereof” (priority 1999, published 2003).

≈ marks a conversion by molar mass, not a printed value.

Assay type in all cases: cell-based
One assay has as its system HeLa. Put plainly: Inhibition of cell growth, HeLa cells. As to conditions: three days at 37° C., microscope assessment; for IC50: Homo sapiens, 72 h, read-out: IC50 value (50% inhibition of cell growth). The protocol: (§1) Aqueous sterile solutions of each substance to be tested are injected into 1 ml of the respective cell stock solution at concentration steps of 2-50 μg each time. Subsequently, the test chambers are developed together with a non-treated reference chamber for three days at 37° C. Assessment is performed using a microscope. Cell growth or cell decomposition (condition of cell membrane and cell nucleus) is compared to non-treated reference cells.

For the next assay, the system named is Peritoneal carcinoma. Put plainly: Inhibition of cell growth, peritoneal carcinoma cells. As to conditions: 72 h, three days at 37° C., microscope assessment, read-out: IC50 value (50% inhibition of cell growth). The method, then:
as §1

Another assay concerns Hep2. Put plainly: Inhibition of cell growth, Hep2 cells. As to conditions: three days at 37° C., microscope assessment; for IC50: Homo sapiens, HEp-2, 72 h, read-out: IC50 value (50% inhibition of cell growth). The protocol: as §1
The test system of the next assay is Pleural carcinoma. Kind of assay: Inhibition of cell growth, pleural carcinoma cells. As to conditions: 72 h, three days at 37° C., microscope assessment, read-out: IC50 value (50% inhibition of cell growth). The protocol: as §1
In assay [1] the test system is permanent cell cultures such as HeLa, Hep2 cells, of peritoneal carcinoma and pleural carcinoma cells. Kind of assay: Inhibition of cell growth, overall statement on the tumor cell cultures. The protocol: as §1

In the case of “3-(D-galacto-tetritol-1-yl)-1,2,4-benzotriazine [Compound i]”, the “IC50 value (50% inhibition of cell growth)” value in the assay on HeLa stood at 400 µg/mL.
Usually IC50 stands for the concentration that gives 50% inhibition. For the molecule `COC(=O)Cc1nnc2ccc(Cl)cc2n1` [Compound b, 3-(methoxycarbonylmethyl)-6-chlorobenzo-1,2,4-triazine], the IC50 in the assay with Peritoneal carcinoma was found to be 150 µg/mL (≈ 631 µM); in the assay with Hep2 it was 120 µg/mL (≈ 505 µM); in the assay with Pleural carcinoma, 500 µg/mL (≈ 2100 µM); in the assay with HeLa it was 160 µg/mL (≈ 673 µM).
As to `COC(=O)Cc1nnc2cccc(Cl)c2n1` [Compound c, 3-(methoxycarbonylmethyl)-5-chlorobenzo-1,2,4-triazine], the IC50 in the assay with Peritoneal carcinoma is 12 µg/mL (≈ 50.5 µM); with Hep2 it was 16 µg/mL (≈ 67.3 µM); with HeLa, 8 to 16 µg/mL (≈ 33.7 to 67.3 µM). In assay [1], the “inhibition of cell growth / antitumor activity, result in words” value is on record as “preferred activity”.
For the molecule `COC(=O)Cc1nnc2ccc(Cl)c(N)c2n1` [Compound d, 3-(methoxycarbonylmethyl)-5-amino-6-chlorobenzo-1,2,4-triazine], the IC50 in the assay with Peritoneal carcinoma is 25 to 30 µg/mL (≈ 98.9 to 119 µM); with Hep2, 500 µg/mL (≈ 1980 µM); in the assay on Pleural carcinoma, 500 µg/mL (≈ 1980 µM); in the assay with HeLa, 50 µg/mL (≈ 198 µM).
On to `CCOC(=O)Cc1nnc2ccc(Br)cc2n1` [Compound g, 3-(ethoxycarbonylmethyl)-6-bromobenzo-1,2,4-triazine], for which the IC50 was 35 µg/mL (≈ 118 µM) in the assay with Peritoneal carcinoma, 8 to 16 µg/mL (≈ 27 to 54 µM) in the assay with Hep2 and 8 to 16 µg/mL (≈ 27 to 54 µM) in the assay on HeLa. In assay [1], the “inhibition of cell growth / antitumor activity, result in words” value is “preferred activity”.
On to `OC[C@@H](O)[C@@H](O)[C@H](O)c1nnc2ccccc2n1` [Compound h, 3-(D-arabino-tetritol-1-yl)-1,2,4-benzotriazine], for which the “IC50 value (50% inhibition of cell growth)” value with Hep2 and in the assay on HeLa was 150 µg/mL in each case.
On to `OC[C@@H](O)[C@@H](O)[C@H](O)c1nnc2ccc(Cl)cc2n1` [Compound k, 3-(D-arabino-tetritol-1-yl)-6-chlorobenzo-1,2,4-triazine], for which, in the assay with HeLa, the “IC50 value (50% inhibition of cell growth)” value worked out at 250 µg/mL.
On to `CC(C)NC(=O)Cc1nnc2ccccc2n1` [Compound l, 3-(isopropylaminocarbonylmethyl)-1,2,4-benzotriazine], for which, in assay [1], the “inhibition of cell growth / antitumor activity, result in words” value is “preferred activity”.
